Measurements: patent US7781592B2, “Thione derivative, method for the preparation thereof, and pharmaceutical composition containing the same” (CJ Cheiljedang Corporation, priority 2003, dated 2010)

Tests used:
[1] = target: T1, COX-2 (Mus musculus, UniProt Q05769); assay: Assay for the COX-2 inhibitory activity using Raw 264.7 cell line (PGE2 inhibition); assay type: cell-based; conditions: test compound 30 nM, RAW 264.7 cells, aspirin pre-treated, interferon + LPS 18 hours, PGE2 by EIA; for inhibition at 0.03 µM: RAW264.7, read-out: Cyclooxygenase (COX) Inhibition (%) COX-2 (30 nM)
T1 construct: host or cells: RAW 264.7 cells, pre-treated with aspirin, then induced with interferon and LPS
T1 sequence (Q05769 18-604): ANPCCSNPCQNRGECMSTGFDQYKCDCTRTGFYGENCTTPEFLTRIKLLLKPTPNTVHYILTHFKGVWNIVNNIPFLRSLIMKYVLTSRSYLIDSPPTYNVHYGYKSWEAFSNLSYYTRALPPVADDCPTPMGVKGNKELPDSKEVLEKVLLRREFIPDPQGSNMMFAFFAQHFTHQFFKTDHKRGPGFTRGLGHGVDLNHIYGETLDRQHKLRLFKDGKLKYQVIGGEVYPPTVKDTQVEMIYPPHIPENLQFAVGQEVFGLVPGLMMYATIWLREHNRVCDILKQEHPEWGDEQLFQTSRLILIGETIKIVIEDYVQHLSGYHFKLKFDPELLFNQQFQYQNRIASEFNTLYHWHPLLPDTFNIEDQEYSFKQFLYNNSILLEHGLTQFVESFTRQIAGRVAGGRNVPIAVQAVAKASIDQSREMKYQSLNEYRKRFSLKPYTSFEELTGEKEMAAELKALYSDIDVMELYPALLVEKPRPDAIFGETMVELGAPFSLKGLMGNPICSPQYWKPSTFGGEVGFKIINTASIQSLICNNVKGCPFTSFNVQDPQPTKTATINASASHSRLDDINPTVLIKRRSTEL
Description: Each well was treated with 250 μM of aspirin and incubated at 37° C. for 2 hours. After the culture media were replaced with new culture media, the new culture media were treated with a test compound (30 nM) and incubated for 30 minutes. Then, each well was treated with interferon ? (100 units/ml) and lipopolysaccharide (LPS, 100 ng/ml) and incubated for 18 hours. The culture media were transferred to other test tubes. The concentration of PGE2 was quantified by means of the EIA kit (Cayman Chemicals).
(§1) The percentages of the COX inhibition were calculated according to the following equation: % Inhibition=(concentration of PGE2 in test compound-untreated sample−concentration of PGE2 in test compound-treated sample)/(concentration of PGE2 in test compound-untreated sample)×100

[2] = target: T2, COX-1 (Homo sapiens, UniProt P23219); assay: Assay for the COX-1 inhibitory activity using U-937 (PGE2 inhibition); assay type: cell-based; conditions: test compound 1 μM, U-937 human lymphoma cells, arachidonic acid substrate, PGE2 quantified; for inhibition at 1 µM: read-out: Cyclooxygenase (COX) Inhibition (%) COX-1 (1 μM)
T2 construct: host or cells: U-937 human lymphoma cells
T2 sequence (P23219 24-599): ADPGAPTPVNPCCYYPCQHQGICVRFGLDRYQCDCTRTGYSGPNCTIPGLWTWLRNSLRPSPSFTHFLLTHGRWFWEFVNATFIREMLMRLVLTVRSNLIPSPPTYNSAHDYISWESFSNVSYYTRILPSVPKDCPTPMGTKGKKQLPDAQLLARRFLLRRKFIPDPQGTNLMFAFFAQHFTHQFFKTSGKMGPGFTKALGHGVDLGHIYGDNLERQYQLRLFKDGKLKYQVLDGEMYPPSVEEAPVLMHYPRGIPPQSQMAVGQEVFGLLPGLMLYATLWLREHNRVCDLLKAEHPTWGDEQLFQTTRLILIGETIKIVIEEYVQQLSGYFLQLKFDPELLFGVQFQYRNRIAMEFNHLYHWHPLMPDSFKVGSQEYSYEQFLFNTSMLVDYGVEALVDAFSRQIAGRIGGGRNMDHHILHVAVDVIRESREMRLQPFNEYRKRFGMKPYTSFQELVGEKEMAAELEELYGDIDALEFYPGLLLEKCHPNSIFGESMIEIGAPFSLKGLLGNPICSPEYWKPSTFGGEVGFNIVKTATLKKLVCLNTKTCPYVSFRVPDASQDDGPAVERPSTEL
Description: The collected cells were diluted with HBSS (×1, Hank's balanced salt solution) to a concentration of 1×10^6 cells/ml. 1 ml of the dilute cell solution was placed into each well of 12-well plates. 5 μl of 1 μM solution of a test compound in DMSO and 5 μl of DMSO as a control were added to the wells. The wells were incubated in CO2 incubator at 37° C. for 15 minutes. Separately, 10 mM stock solution of arachidonic acid in ethanol was diluted ten times in ethanol to prepare 1 mM solution of arachidonic acid. Arachidonic acid acts as a substrate. 10 μl of the 1 mM solution of arachidonic acid was added to each well and incubated at CO2 incubator at 37° C. for 30 minutes. The cell solution of each well was placed in a centrifuge test tube and centrifuged at 10,000 rpm at 4° C. for 5 minutes. The concentration of PGE2 in the collected cells and the supernatant was quantified by means of a monoclonal kit (Cayman Chemicals). The percentages of PGE2 inhibition in a group of the test compound-treated cells in relation to a group of the DMSO-treated cells were calculated. Based on the calculated values, the COX-1 inhibitory activities were evaluated.
as §1

Row | Structure (SMILES) | inhibition at 0.03 µM [1] | melting point | inhibition at 1 µM [2] | Cyclooxygenase (COX) Inhibition (%) COX-2 (30 nM) [1] | Cyclooxygenase (COX) Inhibition (%) COX-1 (1 μM) [2]
1 | CCOc1ccc(-c2c(-c3ccc(S(C)(=O)=O)cc3)ssc2=S)cc1 [Example 39, 4-(4-ethoxyphenyl)-5-(4-methanesulfonylphenyl)-[1,2]dithiol-3-thione] | 36.6% | 210 to 212 °C | 15% | – | –
2 | CS(=O)(=O)c1ccc(-c2ssc(=S)c2-c2ccc(Br)cc2)cc1 [Example 40, 4-(4-bromophenyl)-5-(4-methanesulfonylphenyl)-[1,2]dithiol-3-thione] | 35.7% | 238 to 240 °C | 18.3% | – | –
3 | Cc1ccc(-c2c(-c3ccc(S(C)(=O)=O)cc3)ssc2=S)cc1 [Example 41, 5-(4-methanesulfonylphenyl)-4-p-toryl-[1,2]dithiol-3-thione] | – | – | – | 24.5% | 20.1%
4 | CS(=O)(=O)c1ccc(-c2ssc(=S)c2-c2ccccc2)cc1 [Example 42, 5-(4-methanesulfonylphenyl)-4-phenyl-[1,2]dithiol-3-thione] | 20.1% | 200 to 202 °C | 24.5% | – | –
5 | COc1ccc(-c2c(-c3ccc(S(C)(=O)=O)cc3)ssc2=S)cc1 [Example 43, 5-(4-methanesulfonylphenyl)-4-(4-methoxyphenyl)-[1,2]dithiol-3-thione] | 38.4% | 220 to 222 °C | 19.3% | – | –
6 | CS(=O)(=O)c1ccc(-c2ssc(=S)c2-c2ccccc2C(F)(F)F)cc1 [Example 44, 5-(4-methanesulfonylphenyl)-4-(2-trifluoromethylphenyl)-[1,2]dithiol-3-thione] | 20.1% | 240 to 242 °C | 25.5% | – | –
7 | CS(=O)(=O)c1ccc(-c2ssc(=S)c2-c2ccc(Cl)cc2)cc1 [Example 45, 4-(4-chlorophenyl)-5-(4-methanesulfonylphenyl)-[1,2]dithiol-3-thione] | 22.1% | 233 to 235 °C | 19.6% | – | –
8 | CS(=O)(=O)c1ccc(-c2ssc(=S)c2-c2ccc(Cl)c(Cl)c2)cc1 [Example 46, 4-(3,4-dichlorophenyl)-5-(4-methanesulfonylphenyl)-[1,2]dithiol-3-thione] | 21% | – | 24.6% | – | –
9 | CS(=O)(=O)c1ccc(-c2ssc(=S)c2-c2ccncc2)cc1 [Example 47, 5-(4-methanesulfonylphenyl)-4-(pyridine-4-yl)-[1,2]dithiol-3-thione] | 21.4% | 245 to 247 °C | 22.5% | – | –
10 | CS(=O)(=O)c1ccc(-c2ssc(=S)c2-c2cccnc2)cc1 [Example 48, 5-(4-methanesulfonylphenyl)-4-(pyridine-3-yl)-[1,2]dithiol-3-thione] | 24.2% | – | 23.6% | – | –
11 | CS(=O)(=O)c1ccc(-c2ssc(=S)c2-c2ccccn2)cc1 [Example 49, 5-(4-methanesulfonylphenyl)-4-(pyridine-2-yl)-[1,2]dithiol-3-thione] | 19.5% | – | 28% | – | –
12 | CS(=O)(=O)c1ccc(-c2ssc(=S)c2-c2ccc(F)cc2)cc1 [Example 50, 4-(4-fluorophenyl)-5-(4-methanesulfonylphenyl)-[1,2]dithiol-3-thione] | 19.6% | 195 to 197 °C | 27.2% | – | –
13 | COc1ccc(OC)c(-c2c(-c3ccc(S(C)(=O)=O)cc3)ssc2=S)c1 [Example 51, 4-(2,5-dimethoxyphenyl)-5-(4-methanesulfonylphenyl)-[1,2]dithiol-3-thione] | 19.8% | 176 to 177 °C | 27.6% | – | –
14 | Cc1cc(C)cc(-c2c(-c3ccc(S(C)(=O)=O)cc3)ssc2=S)c1 [Example 52, 4-(3,5-dimethylphenyl)-5-(4-methanesulfonylphenyl)-[1,2]dithiol-3-thione] | 19.1% | 164 to 165 °C | 26.6% | – | –
15 | COc1cccc(-c2c(-c3ccc(S(C)(=O)=O)cc3)ssc2=S)c1 [Example 53, 5-(4-methanesulfonylphenyl)-4-(3-methoxyphenyl)-[1,2]dithiol-3-thione] | 21.6% | 212 to 213 °C | 26.7% | – | –
16 | CS(=O)(=O)c1ccc(-c2ssc(=S)c2-c2ccccc2[N+](=O)[O-])cc1 [Example 54, 5-(4-methanesulfonylphenyl)-4-(2-nitrophenyl)-[1,2]dithiol-3-thione] | 26.3% | 170 to 171 °C | 22.4% | – | –
17 | CS(=O)(=O)c1ccc(-c2ssc(=S)c2-c2cccc(C(F)(F)F)c2)cc1 [Example 55, 5-(4-methanesulfonylphenyl)-4-(3-trifluoromethylphenyl)-[1,2]dithiol-3-thione] | 20.2% | 188 to 189 °C | 27.6% | – | –
18 | Cc1ccccc1-c1c(-c2ccc(S(C)(=O)=O)cc2)ssc1=S [Example 56, 5-(4-methanesulfonylphenyl)-4-o-toryl-[1,2]dithiol-3-thione] | – | – | – | 25.6% | 20.6%
19 | CS(=O)(=O)c1ccc(-c2ssc(=S)c2-c2ccccc2Cl)cc1 [Example 57, 4-(2-chlorophenyl)-5-(4-methanesulfonylphenyl)-[1,2]dithiol-3-thione] | 21.1% | 161 to 162 °C | 20.7% | – | –
20 | CS(=O)(=O)c1ccc(-c2ssc(=S)c2-c2ccc(Cl)cc2Cl)cc1 [Example 58, 4-(2,4-dichlorophenyl)-5-(4-methanesulfonylphenyl)-[1,2]dithiol-3-thione] | 20.1% | 176 to 177 °C | 24.2% | – | –
21 | CS(=O)(=O)c1ccc(-c2ssc(=S)c2-c2ccc3ccccc3c2)cc1 [Example 65, 5-(4-methanesulfonylphenyl)-4-(naphthalene-2-yl)-[1,2]dithiol-3-thione] | 20.1% | – | 22.6% | – | –
22 | CS(=O)(=O)c1ccc(-c2ssc(=S)c2-c2c(F)c(F)c(F)c(F)c2F)cc1 [Example 66, 5-(4-methanesulfonylphenyl)-4-pentafluorophenyl-[1,2]dithiol-3-thione] | – | – | – | 19.2% | 28.2%
23 | Cc1ccc(-c2c(-c3ccc(S(C)(=O)=O)cc3Cl)ssc2=S)cc1 [Example 71, 5-(2-chloro-4-methanesulfonylphenyl)-4-p-toryl-[1,2]dithiol-3-thione] | – | – | – | 21.0% | 20.3%
24 | Cc1ccc(-c2c(-c3ccc(S(C)(=O)=O)c(F)c3)ssc2=S)cc1 [Example 77, 5-(3-fluoro-4-methanesulfonylphenyl)-4-p-toryl-[1,2]dithiol-3-thione] | – | – | – | 31.5% | 15.2%
25 | COc1ccc(-c2c(-c3ccc(S(C)(=O)=O)c(F)c3)ssc2=S)cc1 [Example 78, 5-(3-fluoro-4-methanesulfonylphenyl)-4-(4-methoxyphenyl)-[1,2]dithiol-3-thione] | 32.5% | – | 18.5% | – | –
26 | Cc1ccc(-c2c(-c3ccc(S(C)(=O)=O)cc3)[nH][nH]c2=S)cc1 [Example 80, 5-(4-methanesulfonylphenyl)-4-p-toryl-[1,2]dihydropyrazole-3-thione] | – | – | – | 23.2% | 25.6%
